The values below come from patent EP2698367A1, “Benzimidazoles for the treatment of cancer” (Max-Planck-Gesellschaft zur Förderung der Wissenschaften …, priority 2012, dated 2014).

For one assay, the system named is PANC-TUI cells. Briefly: Real time cell analysis (RTCA) of PANC-TUI cell proliferation. It is filed as cell-based, human. The following applies: 5µM, K-Ras dependent pancreatic tumor cell. On the procedure: To address whether the novel compounds that target the farnesyl binding pocket in PDEδ inhibit the interaction between PDEδ and Ras family proteins in live cells, fluorescence lifetime imaging microscopy (FLIM)-based quantitative fluorescence resonance energy transfer (FRET) measurements were carried out. […] Figure 4: Real time cell analysis (RTCA) of PANC-TUI cell proliferation. PANC-TUI is a K-Ras dependent pancreatic tumor cell.

In the next assay the test system is CAPAN-1 cells. Briefly: Real time cell analysis (RTCA) of CAPAN-1 cells. It is filed as cell-based. The following applies: 5µM, K-Ras dependent pancreatic tumor cell.
Another assay deals with Erk. Briefly: Western blot of ERK signaling (Erk phosphorylation) in PANC-TUI cells. In kind it is cell-based, human. The following applies: 5 µM, EGF, measured by phosphorylation.
Assay [1] deals with mCherry-K-Ras in Panc1 cells. Briefly: Time series of mCherry-K-Ras redistribution in Panc1 cells. In kind it is cell-based, human. The following applies: 5µM.
Assay [2] deals with mCherry-K-Ras in PancTul cells. Nature of the assay: Time series of mCherry-K-Ras redistribution in PancTul cells. The following applies: 5µM. In kind it is cell-based, human.
The target in assay [3] is interaction of Rheb with PDEδ (Homo sapiens, UniProt O43924). The following applies: 5 µM, live MDCK cells, measured by FLIM.
Chain of interaction of Rheb with PDEδ (O43924 whole entry): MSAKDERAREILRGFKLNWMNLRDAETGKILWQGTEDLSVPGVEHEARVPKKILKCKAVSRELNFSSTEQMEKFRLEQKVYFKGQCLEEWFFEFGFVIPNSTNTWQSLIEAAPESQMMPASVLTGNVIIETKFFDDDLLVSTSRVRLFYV
Description: To address whether the novel compounds that target the farnesyl binding pocket in PDEδ inhibit the interaction between PDEδ and Ras family proteins in live cells, fluorescence lifetime imaging microscopy (FLIM)-based quantitative fluorescence resonance energy transfer (FRET) measurements were carried out. These experiments allow the quantitative determination of the fraction (α) of interacting mCitrine (a yellow fluorescent protein) tagged Ras proteins with mCherry (a red fluorescent protein) tagged PDEδ in living cells by the change in the fluorescence lifetime (τav) of the mCitrine fused to Ras. mCitrine-Rheb was selected as the farnesylated Ras family protein due to its more clearly measurable interaction with mCherry-PDEδ in live cells.
All cells were routinely maintained in MEM Eagle's medium supplemented with 10% FBS, 1% non-essential amino acids and 1% L-glutamine. […]
Fluorescence lifetime images were acquired using a confocal laser scanning microscope (FV1000, Olympus) equipped with a time-correlated single-photon counting module (LSM Upgrade Kit, Picoquant). […] Photons were detected using a single-photon counting avalanche photodiode (PDM Series, MPD) and timed using a single-photon counting module (PicoHarp 300, Picoquant).

In the case of `c1ccc(Cn2c(-c3ccc(OC[C@H](C4CCNCC4)n4c(-c5ccccc5)nc5ccccc54)cc3)nc3ccccc32)cc1` [(S)-9, (S)-1-Benzyl-2-(4-(2-(2-phenyl-1H-benzo[d]imidazol-1-yl)-2-(piperidin-4-yl)ethoxy)phenyl)-1H-benzo[d]imidazole], the PANC-TUI cell proliferation result with PANC-TUI cells is “stopped proliferating and underwent cell death within a few hours”. For the same compound, the “Proliferation of CAPAN-1 cells” value in the assay with CAPAN-1 cells is “inhibited strongly”. In the assay with Erk, the “activation of Erk” value is on record as “attenuated activation of Erk”. Also, the mCherry-K-Ras redistribution result in assay [1] and in assay [2] was “loss of K-Ras spatial organization” throughout. Moreover, the “interaction between mCitrine-Rheb and mCherry-PDEδ” value in assay [3] was “more rapidly (within one minute) and more strongly reduced”.
